In PubChem BioAssay AID1745844 (Carcinogenic Potency Database (CPDB), 2022):
The source made the active and inactive calls. The rule behind the calls is not given here.

Tested on: rodent lifetime carcinogenesis bioassay, tumor incidence TD50
Experiment: chronic cancer bioassays in animals – CPDB, compiled studies (AID 1745844)

OCC(CO)N[C@H]1C[C@](O)(CO)[C@@H](O)[C@H](O)[C@H]1O
carcinogen call (mouse, strain Charles River CD1, females, by gavage, site: liver, lesion: hepatocellular adenoma, dosed 101 weeks, study length 101 weeks): negative (inactive)
carcinogen call (mouse, strain Charles River CD1, females, by gavage, site: lung, lesion: alveolar/bronchiolar adenoma, dosed 101 weeks, study length 101 weeks): negative (inactive)
carcinogen call (mouse, strain Charles River CD1, males, by gavage, site: liver, lesion: hepatocellular adenoma, dosed 83 weeks, study length 83 weeks): negative (inactive)
carcinogen call (mouse, strain Charles River CD1, males, by gavage, site: liver, lesion: hepatocellular carcinoma, dosed 83 weeks, study length 83 weeks): negative (inactive)
TD50 (mouse, strain Charles River CD1, males, by gavage, site: lung, lesion: alveolar/bronchiolar adenoma, dosed 83 weeks, study length 83 weeks): 1370 mg/kg/day (inactive)
carcinogen call (rat, strain F344/DuCrj, females, by gavage, site: liver, lesion: one or several types, types not named, dosed 104 weeks, study length 104 weeks): negative (inactive)
TD50 (rat, strain F344/DuCrj, females, by gavage, site: mammary gland, lesion: fibroadenoma, dosed 104 weeks, study length 104 weeks): 119 mg/kg/day (inactive)
TD50 (rat, strain F344/DuCrj, males, by gavage, site: liver, lesion: hepatocellular adenoma, dosed 104 weeks, study length 104 weeks): 575 mg/kg/day (inactive)
TD50 (rat, strain F344/DuCrj, males, by gavage, site: liver, lesion: hepatocellular carcinoma, dosed 104 weeks, study length 104 weeks): 1740 mg/kg/day (inactive)
TD50 (rat, strain F344/DuCrj, males, by gavage, site: testis, lesion: interstitial-cell tumor, dosed 104 weeks, study length 104 weeks): 9.27 mg/kg/day (inactive)

NC(=O)Cc1c([O-])on[n+]1Cc1ccccc1
TD50 (mouse, strain DDD, females, in drinking water, site: liver, lesion: hepatocellular adenoma, dosed 52 weeks, study length 52 weeks): 10.2 mg/kg/day
TD50 (mouse, strain DDD, females, in drinking water, site: liver, lesion: hepatocellular carcinoma, dosed 52 weeks, study length 52 weeks): 22.6 mg/kg/day
TD50 (mouse, strain DDD, females, in drinking water, site: liver, lesion: several types, types named in the paper, dosed 52 weeks, study length 52 weeks): 10.2 mg/kg/day
TD50 (mouse, strain DDD, females, in drinking water, site: lung, lesion: adenoma, dosed 52 weeks, study length 52 weeks): 31.4 mg/kg/day
TD50 (rat, strain Donryu, males, in drinking water, site: liver, lesion: hepatocellular carcinoma, dosed 41 weeks, study length 91 weeks): 4.24 mg/kg/day
TD50 (rat, strain Donryu, males, in drinking water, site: liver, lesion: neoplastic nodule, dosed 41 weeks, study length 91 weeks): 15.1 mg/kg/day
TD50 (rat, strain Donryu, males, in drinking water, site: liver, lesion: several types, types named in the paper, dosed 41 weeks, study length 91 weeks): 4.24 mg/kg/day
carcinogen call (rat, strain Donryu, males, in feed, site: liver, lesion: one or several types, types not named, dosed 104 weeks, study length 104 weeks): negative (inactive)

CNNC
TD50 (hamster, strain Syrian Golden, females, in drinking water, site: blood vessels, lesion: angiosarcoma, dosed 67 weeks, study length 67 weeks): 0.156 mg/kg/day
TD50 (hamster, strain Syrian Golden, females, in drinking water, site: cecum, lesion: adenocarcinoma, dosed 67 weeks, study length 67 weeks): 2.84 mg/kg/day
TD50 (hamster, strain Syrian Golden, females, in drinking water, site: cecum, lesion: polypoid adenoma, dosed 67 weeks, study length 67 weeks): 2.08 mg/kg/day
TD50 (hamster, strain Syrian Golden, females, in drinking water, site: cecum, lesion: several types, types named in the paper, dosed 67 weeks, study length 67 weeks): 0.864 mg/kg/day
TD50 (hamster, strain Syrian Golden, females, in drinking water, site: heart, lesion: angiosarcoma, dosed 67 weeks, study length 67 weeks): 2.13 mg/kg/day
TD50 (hamster, strain Syrian Golden, females, in drinking water, site: liver, lesion: angiosarcoma, dosed 67 weeks, study length 67 weeks): 0.156 mg/kg/day
TD50 (hamster, strain Syrian Golden, females, in drinking water, site: liver, lesion: hepatoma, dosed 67 weeks, study length 67 weeks): 1.4 mg/kg/day
TD50 (hamster, strain Syrian Golden, females, in drinking water, site: liver, lesion: several types, types named in the paper, dosed 67 weeks, study length 67 weeks): 0.917 mg/kg/day
TD50 (hamster, strain Syrian Golden, females, in drinking water, site: lung, lesion: angiosarcoma, dosed 67 weeks, study length 67 weeks): 0.395 mg/kg/day
TD50 (hamster, strain Syrian Golden, females, in drinking water, site: muscle, lesion: angiosarcoma, dosed 67 weeks, study length 67 weeks): 1.03 mg/kg/day
TD50 (hamster, strain Syrian Golden, females, in drinking water, site: pancreas, lesion: angiosarcoma, dosed 67 weeks, study length 67 weeks): 18.4 mg/kg/day
TD50 (hamster, strain Syrian Golden, males, in drinking water, site: blood vessels, lesion: angiosarcoma, dosed 71 weeks, study length 71 weeks): 0.211 mg/kg/day
TD50 (hamster, strain Syrian Golden, males, in drinking water, site: cecum, lesion: polypoid adenoma, dosed 71 weeks, study length 71 weeks): 2.42 mg/kg/day
TD50 (hamster, strain Syrian Golden, males, in drinking water, site: heart, lesion: angiosarcoma, dosed 71 weeks, study length 71 weeks): 2.49 mg/kg/day
TD50 (hamster, strain Syrian Golden, males, in drinking water, site: liver, lesion: angiosarcoma, dosed 71 weeks, study length 71 weeks): 0.211 mg/kg/day
TD50 (hamster, strain Syrian Golden, males, in drinking water, site: liver, lesion: several types, types named in the paper, dosed 71 weeks, study length 71 weeks): 2.05 mg/kg/day
TD50 (hamster, strain Syrian Golden, males, in drinking water, site: lung, lesion: angiosarcoma, dosed 71 weeks, study length 71 weeks): 0.685 mg/kg/day
TD50 (hamster, strain Syrian Golden, males, in drinking water, site: muscle, lesion: angiosarcoma, dosed 71 weeks, study length 71 weeks): 1.36 mg/kg/day
TD50 (hamster, strain Syrian Golden, males, in drinking water, site: pancreas, lesion: angiosarcoma, dosed 71 weeks, study length 71 weeks): 18.6 mg/kg/day
carcinogen call (mouse, strain Swiss albino, females, in drinking water, site: blood vessels, lesion: angiosarcoma, dosed 52 weeks, study length 52 weeks): positive
TD50 (mouse, strain Swiss albino, females, in drinking water, site: liver, lesion: hepatoma, dosed 52 weeks, study length 52 weeks): 13.9 mg/kg/day
TD50 (mouse, strain Swiss albino, females, in drinking water, site: lung, lesion: adenoma, dosed 52 weeks, study length 52 weeks): 0.559 mg/kg/day
TD50 (mouse, strain Swiss albino, males, in drinking water, site: blood vessels, lesion: angiosarcoma, dosed 52 weeks, study length 52 weeks): 0.102 mg/kg/day
TD50 (mouse, strain Swiss albino, males, in drinking water, site: fat, lesion: angiosarcoma, dosed 52 weeks, study length 52 weeks): 0.215 mg/kg/day
TD50 (mouse, strain Swiss albino, males, in drinking water, site: liver, lesion: angiosarcoma, dosed 52 weeks, study length 52 weeks): 0.377 mg/kg/day
TD50 (mouse, strain Swiss albino, males, in drinking water, site: lung, lesion: several types, types named in the paper, dosed 52 weeks, study length 52 weeks): 1.81 mg/kg/day
TD50 (mouse, strain Swiss albino, males, in drinking water, site: lymph node, lesion: angiosarcoma, dosed 52 weeks, study length 52 weeks): 1.02 mg/kg/day
TD50 (mouse, strain Swiss albino, males, in drinking water, site: muscle, lesion: angiosarcoma, dosed 52 weeks, study length 52 weeks): 0.203 mg/kg/day
TD50 (mouse, strain Swiss albino, males, in drinking water, site: paraepididymal tissue, lesion: angiosarcoma, dosed 52 weeks, study length 52 weeks): 0.337 mg/kg/day
TD50 (mouse, strain Swiss albino, males, in drinking water, site: pararenal tissue, lesion: angiosarcoma, dosed 52 weeks, study length 52 weeks): 0.18 mg/kg/day
TD50 (mouse, strain Swiss albino, males, in drinking water, site: subcutaneous tissue, lesion: angiosarcoma, dosed 52 weeks, study length 52 weeks): 0.781 mg/kg/day

CC(COc1ccccc1)N(CCCl)Cc1ccccc1 (centres undefined)
TD50 (mouse, strain B6C3F1, females, i.p., site: abdominal cavity, lesion: sarcoma, NOS, dosed 52 weeks, study length 84 weeks): 5.85 mg/kg/day
TD50 (mouse, strain B6C3F1, females, i.p., site: any site (literature study), lesion: several types, types named in the paper, dosed 52 weeks, study length 84 weeks): 3.08 mg/kg/day
TD50 (mouse, strain B6C3F1, males, i.p., site: abdominal cavity, lesion: sarcoma, NOS, dosed 51 weeks, study length 83 weeks): 4.95 mg/kg/day
TD50 (mouse, strain B6C3F1, males, i.p., site: any site (literature study), lesion: several types, types named in the paper, dosed 51 weeks, study length 83 weeks): 2.17 mg/kg/day
TD50 (mouse, strain B6C3F1, males, i.p., site: liver, lesion: hepatocellular adenoma + hepatocellular carcinoma + neoplastic nodule, dosed 51 weeks, study length 83 weeks): 5.84 mg/kg/day
TD50 (mouse, strain B6C3F1, males, i.p., site: lung, lesion: alveolar/bronchiolar adenoma + alveolar/bronchiolar carcinoma, dosed 51 weeks, study length 83 weeks): 63 mg/kg/day
TD50 (rat, strain Sprague-Dawley, females, i.p., site: any site (literature study), lesion: several types, types named in the paper, dosed 52 weeks, study length 83 weeks): 1.34 mg/kg/day
TD50 (rat, strain Sprague-Dawley, females, i.p., site: peritoneum, lesion: sarcoma, NOS, dosed 52 weeks, study length 83 weeks): 2.36 mg/kg/day
TD50 (rat, strain Sprague-Dawley, males, i.p., site: any site (literature study), lesion: several types, types named in the paper, dosed 52 weeks, study length 83 weeks): 0.555 mg/kg/day
TD50 (rat, strain Sprague-Dawley, males, i.p., site: peritoneum, lesion: sarcoma, NOS, dosed 52 weeks, study length 83 weeks): 0.71 mg/kg/day
